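Values below derive from 48-hour exposures of cells grown in 96-well plates, with endpoints linearly interpolated between the two concentrations bracketing the appropriate inhibition level. The concentration for 50% growth inhibition is given as GI50. At the TGI there is no net growth.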
Assays:
Assay in all cases: NCI-60 cell line screen, 48 h
786-0 renal = system: 786-0 renal
A498 renal = system: A498 renal
A549 NSCLC = system: A549 NSCLC
ACHN renal = system: ACHN renal
BT-549 breast = system: BT-549 breast
CAKI-1 renal = system: CAKI-1 renal
CCRF-CEM leukemia = system: CCRF-CEM leukemia
COLO 205 colon = system: COLO 205 colon
DU-145 prostate = system: DU-145 prostate
EKVX NSCLC = system: EKVX NSCLC
HCC-2998 colon = system: HCC-2998 colon
HCT-116 colon = system: HCT-116 colon
HCT-15 colon = system: HCT-15 colon
HL-60(TB) leukemia = system: HL-60(TB) leukemia
HOP-62 NSCLC = system: HOP-62 NSCLC
HOP-92 NSCLC = system: HOP-92 NSCLC
HS 578T breast = system: HS 578T breast
HT29 colon = system: HT29 colon
IGROV1 ovarian = system: IGROV1 ovarian
K-562 leukemia = system: K-562 leukemia
KM12 colon = system: KM12 colon
LOX IMVI melanoma = system: LOX IMVI melanoma
M14 melanoma = system: M14 melanoma
MALME-3M melanoma = system: MALME-3M melanoma
MCF7 breast = system: MCF7 breast
MDA-MB-231 breast = system: MDA-MB-231 breast
MDA-MB-435 = system: MDA-MB-435
MOLT-4 leukemia = system: MOLT-4 leukemia
NCI-H226 lung = system: NCI-H226 lung
NCI-H23 lung = system: NCI-H23 lung
NCI-H460 lung = system: NCI-H460 lung
NCI-H522 lung = system: NCI-H522 lung
NCI/ADR-RES ovarian = system: NCI/ADR-RES ovarian
OVCAR-3 ovarian = system: OVCAR-3 ovarian
OVCAR-4 ovarian = system: OVCAR-4 ovarian
OVCAR-5 ovarian = system: OVCAR-5 ovarian
OVCAR-8 ovarian = system: OVCAR-8 ovarian
PC-3 prostate = system: PC-3 prostate
RPMI-8226 leukemia = system: RPMI-8226 leukemia
RXF 393 renal = system: RXF 393 renal
SF-268 CNS = system: SF-268 CNS
SF-295 CNS = system: SF-295 CNS
SF-539 CNS = system: SF-539 CNS
SK-MEL-2 melanoma = system: SK-MEL-2 melanoma
SK-MEL-28 melanoma = system: SK-MEL-28 melanoma
SK-MEL-5 melanoma = system: SK-MEL-5 melanoma
SK-OV-3 ovarian = system: SK-OV-3 ovarian
SN12C renal = system: SN12C renal
SNB-19 CNS = system: SNB-19 CNS
SNB-75 CNS = system: SNB-75 CNS
SR leukemia = system: SR leukemia
SW-620 colon = system: SW-620 colon
T-47D breast = system: T-47D breast
TK-10 renal = system: TK-10 renal
U251 CNS = system: U251 CNS
UACC-257 melanoma = system: UACC-257 melanoma
UACC-62 melanoma = system: UACC-62 melanoma
UO-31 renal = system: UO-31 renal

C=C(C)[C@@H]1CC[C@]2(C)[C@H](CC[C@@H]3[C@@H]([C@@](C)(O)CCC=C(C)C)CC[C@]32C)[C@@]1(C)CCC(=O)N1CCN(C)CC1
GI50 (786-0 renal): 10.3 µM | TGI (786-0 renal): 23.8 µM | GI50 (A498 renal): 13.2 µM | TGI (A498 renal): 26.6 µM | GI50 (A549 NSCLC): 9.65 µM | TGI (A549 NSCLC): 24.2 µM | GI50 (ACHN renal): 13.6 µM | TGI (ACHN renal): 26.5 µM | GI50 (BT-549 breast): 11.2 µM | TGI (BT-549 breast): 24.1 µM | GI50 (CAKI-1 renal): 12.4 µM | TGI (CAKI-1 renal): 24.9 µM | GI50 (CCRF-CEM leukemia): 11.6 µM | TGI (CCRF-CEM leukemia): 37.6 µM | GI50 (COLO 205 colon): 12.3 µM | TGI (COLO 205 colon): 26.8 µM | GI50 (DU-145 prostate): 11.9 µM | TGI (DU-145 prostate): 24.6 µM | GI50 (EKVX NSCLC): 11.6 µM | TGI (EKVX NSCLC): 23.9 µM | GI50 (HCC-2998 colon): 13.5 µM | TGI (HCC-2998 colon): 26.3 µM | GI50 (HCT-116 colon): 4.43 µM | TGI (HCT-116 colon): 16.9 µM | GI50 (HCT-15 colon): 6.04 µM | TGI (HCT-15 colon): 18.1 µM | GI50 (HL-60(TB) leukemia): 4.26 µM | TGI (HL-60(TB) leukemia): 19.2 µM | GI50 (HOP-62 NSCLC): 12.8 µM | TGI (HOP-62 NSCLC): 26.1 µM | GI50 (HOP-92 NSCLC): 6.4 µM | TGI (HOP-92 NSCLC): 20.7 µM | GI50 (HS 578T breast): 13.1 µM | TGI (HS 578T breast): 36.5 µM | GI50 (HT29 colon): 4.14 µM | TGI (HT29 colon): 16.2 µM | GI50 (IGROV1 ovarian): 12.7 µM | TGI (IGROV1 ovarian): 27.4 µM | GI50 (K-562 leukemia): 4.26 µM | TGI (K-562 leukemia): 24.1 µM | GI50 (KM12 colon): 10.5 µM | TGI (KM12 colon): 23.6 µM | GI50 (LOX IMVI melanoma): 13.4 µM | TGI (LOX IMVI melanoma): 26.5 µM | GI50 (M14 melanoma): 10.1 µM | TGI (M14 melanoma): 24.2 µM | GI50 (MALME-3M melanoma): 10.7 µM | TGI (MALME-3M melanoma): 23.6 µM | GI50 (MCF7 breast): 7 µM | TGI (MCF7 breast): 21.1 µM | GI50 (MDA-MB-231 breast): 13.4 µM | TGI (MDA-MB-231 breast): 26.7 µM | GI50 (MDA-MB-435): 12.2 µM | TGI (MDA-MB-435): 26.5 µM | GI50 (MOLT-4 leukemia): 6.39 µM | TGI (MOLT-4 leukemia): 29.3 µM | GI50 (NCI-H226 lung): 12.9 µM | TGI (NCI-H226 lung): 31.7 µM | GI50 (NCI-H23 lung): 13.7 µM | TGI (NCI-H23 lung): 27.5 µM | GI50 (NCI-H460 lung): 16.9 µM | TGI (NCI-H460 lung): 32.9 µM | GI50 (NCI-H522 lung): 13.4 µM | TGI (NCI-H522 lung): 28.2 µM | GI50 (NCI/ADR-RES ovarian): 12.1 µM | TGI (NCI/ADR-RES ovarian): 25 µM | GI50 (OVCAR-3 ovarian): 10.4 µM | TGI (OVCAR-3 ovarian): 22.5 µM | GI50 (OVCAR-4 ovarian): 10.1 µM | TGI (OVCAR-4 ovarian): 23.4 µM | GI50 (OVCAR-5 ovarian): 14 µM | TGI (OVCAR-5 ovarian): 27.4 µM | GI50 (OVCAR-8 ovarian): 14.1 µM | TGI (OVCAR-8 ovarian): 30.5 µM | GI50 (PC-3 prostate): 3.77 µM | TGI (PC-3 prostate): 15.8 µM | GI50 (RPMI-8226 leukemia): 5.99 µM | TGI (RPMI-8226 leukemia): 28.6 µM | GI50 (RXF 393 renal): 5.25 µM | TGI (RXF 393 renal): 16.4 µM | GI50 (SF-268 CNS): 13.1 µM | TGI (SF-268 CNS): 30.1 µM | GI50 (SF-295 CNS): 13.4 µM | TGI (SF-295 CNS): 26.2 µM | GI50 (SF-539 CNS): 9.44 µM | TGI (SF-539 CNS): 21.7 µM | GI50 (SK-MEL-2 melanoma): 14.8 µM | TGI (SK-MEL-2 melanoma): 29.8 µM | GI50 (SK-MEL-28 melanoma): 12.9 µM | TGI (SK-MEL-28 melanoma): 25.8 µM | GI50 (SK-MEL-5 melanoma): 6.97 µM | TGI (SK-MEL-5 melanoma): 19.6 µM | GI50 (SK-OV-3 ovarian): 12.9 µM | TGI (SK-OV-3 ovarian): 26.4 µM | GI50 (SN12C renal): 11.4 µM | TGI (SN12C renal): 24.2 µM | GI50 (SNB-19 CNS): 15 µM | TGI (SNB-19 CNS): 28.4 µM | GI50 (SNB-75 CNS): 11.3 µM | TGI (SNB-75 CNS): 25 µM | GI50 (SR leukemia): 3.39 µM | TGI (SR leukemia): 21.6 µM | GI50 (SW-620 colon): 13 µM | TGI (SW-620 colon): 28.5 µM | GI50 (T-47D breast): 4.72 µM | TGI (T-47D breast): 19.6 µM | GI50 (TK-10 renal): 17.7 µM | TGI (TK-10 renal): 32.2 µM | GI50 (U251 CNS): 10.1 µM | TGI (U251 CNS): 22 µM | GI50 (UACC-257 melanoma): 11.8 µM | TGI (UACC-257 melanoma): 25.6 µM | GI50 (UACC-62 melanoma): 11.2 µM | TGI (UACC-62 melanoma): 24.1 µM | GI50 (UO-31 renal): 11.3 µM | TGI (UO-31 renal): 23.3 µM

— PubChem BioAssay (NCI)
